This assay addresses T1, apocarotenoid oxygenase ACO from Synechocystis (Synechocystis sp. PCC 6803, UniProt P74334).
T1 sequence (P74334 1-490): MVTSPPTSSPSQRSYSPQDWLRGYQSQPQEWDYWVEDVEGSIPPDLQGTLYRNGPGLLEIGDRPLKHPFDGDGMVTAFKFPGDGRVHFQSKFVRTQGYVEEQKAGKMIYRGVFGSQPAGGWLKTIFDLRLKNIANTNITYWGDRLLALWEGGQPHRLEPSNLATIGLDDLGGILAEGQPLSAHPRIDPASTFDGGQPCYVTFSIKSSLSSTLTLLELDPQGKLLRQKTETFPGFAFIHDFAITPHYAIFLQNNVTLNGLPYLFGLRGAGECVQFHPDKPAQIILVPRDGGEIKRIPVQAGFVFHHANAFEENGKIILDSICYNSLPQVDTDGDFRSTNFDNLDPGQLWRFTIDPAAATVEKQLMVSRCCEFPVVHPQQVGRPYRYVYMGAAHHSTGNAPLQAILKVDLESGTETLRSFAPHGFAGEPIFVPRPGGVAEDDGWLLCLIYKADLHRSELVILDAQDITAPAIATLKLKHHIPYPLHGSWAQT
The experiment in a line: HPLC at […] nm, UV-visible spectra. The settings on record: product 3-hydroxy-retinal. The assay is classed as biochemical.

As for `CC1=C(/C=C/C(C)=C/C=C/C(C)=C/C=C/C=C(\C)C=O)C(C)(C)C[C@H](O)C1` [3-hydroxy-β-apo-12’-carotenal], the “HPLC at 360 nm, UV-visible spectra” value is recorded as “first incubated 3-hydroxy-β-apo-12’-carotenal with the bacterial ACO to produce 3-hydroxy-retinal”.
